Where “and” joins values, the source holds several entries; their conditions need not be identical. Identical values can stand only once.
Assays:
[1] = biological target: T1, EPHA8 (Homo sapiens, UniProt P29322); settings: 1 μM; Run 1, Run 2
T1 sequence (P29322 28-1005): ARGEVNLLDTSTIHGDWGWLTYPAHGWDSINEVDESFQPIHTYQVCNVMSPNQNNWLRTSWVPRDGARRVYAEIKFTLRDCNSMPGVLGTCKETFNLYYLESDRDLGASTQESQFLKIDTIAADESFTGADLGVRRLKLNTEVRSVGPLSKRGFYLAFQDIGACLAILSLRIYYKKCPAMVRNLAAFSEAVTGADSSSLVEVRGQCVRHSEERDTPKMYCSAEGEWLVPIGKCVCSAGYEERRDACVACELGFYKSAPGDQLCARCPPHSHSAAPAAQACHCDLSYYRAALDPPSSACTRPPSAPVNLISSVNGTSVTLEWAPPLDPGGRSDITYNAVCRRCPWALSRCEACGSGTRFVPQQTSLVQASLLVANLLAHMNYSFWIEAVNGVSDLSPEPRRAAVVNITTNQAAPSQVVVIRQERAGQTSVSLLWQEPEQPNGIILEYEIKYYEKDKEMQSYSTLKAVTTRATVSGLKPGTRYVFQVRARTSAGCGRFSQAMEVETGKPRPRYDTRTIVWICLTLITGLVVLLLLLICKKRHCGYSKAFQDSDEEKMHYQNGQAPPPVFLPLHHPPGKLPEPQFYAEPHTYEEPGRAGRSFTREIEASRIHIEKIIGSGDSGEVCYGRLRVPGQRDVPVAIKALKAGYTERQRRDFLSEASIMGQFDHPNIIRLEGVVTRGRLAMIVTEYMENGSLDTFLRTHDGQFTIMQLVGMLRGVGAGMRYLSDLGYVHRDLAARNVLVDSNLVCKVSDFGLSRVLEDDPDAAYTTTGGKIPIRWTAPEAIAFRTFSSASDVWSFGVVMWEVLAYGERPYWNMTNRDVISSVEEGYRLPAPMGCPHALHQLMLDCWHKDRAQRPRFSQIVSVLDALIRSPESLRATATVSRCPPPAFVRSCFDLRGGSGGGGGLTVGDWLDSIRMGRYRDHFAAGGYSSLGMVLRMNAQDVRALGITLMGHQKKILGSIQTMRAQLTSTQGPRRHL

[2] = biological target: RSK3 (Homo sapiens, UniProt Q15349); settings: 1 μM; Run 1, Run 2
[3] = biological target: T2, Aurora C (Homo sapiens, UniProt Q9UQB9); settings: 1 μM; Run 1, Run 2
T2 sequence (Q9UQB9 1-309): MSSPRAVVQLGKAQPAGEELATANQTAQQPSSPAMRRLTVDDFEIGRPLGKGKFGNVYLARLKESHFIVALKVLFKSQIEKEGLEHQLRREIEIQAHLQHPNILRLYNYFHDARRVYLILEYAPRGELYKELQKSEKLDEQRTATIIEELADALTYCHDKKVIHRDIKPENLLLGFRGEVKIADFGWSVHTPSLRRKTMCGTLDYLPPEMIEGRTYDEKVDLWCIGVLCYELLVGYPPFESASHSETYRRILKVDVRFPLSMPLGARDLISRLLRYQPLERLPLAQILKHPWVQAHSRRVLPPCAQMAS

[4] = biological target: T3, MKK6 (Homo sapiens, UniProt P52564); settings: 1 μM; Run 1, Run 2
T3 sequence (P52564 1-334): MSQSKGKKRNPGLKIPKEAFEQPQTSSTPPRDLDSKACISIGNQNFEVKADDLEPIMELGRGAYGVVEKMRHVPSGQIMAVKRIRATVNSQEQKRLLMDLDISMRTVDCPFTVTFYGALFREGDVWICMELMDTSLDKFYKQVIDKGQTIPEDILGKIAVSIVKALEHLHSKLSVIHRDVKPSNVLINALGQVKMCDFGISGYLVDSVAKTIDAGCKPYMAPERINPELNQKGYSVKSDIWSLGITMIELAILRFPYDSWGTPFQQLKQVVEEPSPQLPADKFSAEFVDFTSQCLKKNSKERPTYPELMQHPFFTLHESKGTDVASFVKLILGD

[5] = tested on: ALK6/BMPR1B
[6] = biological target: T4, PKCmu/PRKD1 (Homo sapiens, UniProt Q15139); settings: 1 μM; Run 1, Run 2
T4 sequence (Q15139 1-912): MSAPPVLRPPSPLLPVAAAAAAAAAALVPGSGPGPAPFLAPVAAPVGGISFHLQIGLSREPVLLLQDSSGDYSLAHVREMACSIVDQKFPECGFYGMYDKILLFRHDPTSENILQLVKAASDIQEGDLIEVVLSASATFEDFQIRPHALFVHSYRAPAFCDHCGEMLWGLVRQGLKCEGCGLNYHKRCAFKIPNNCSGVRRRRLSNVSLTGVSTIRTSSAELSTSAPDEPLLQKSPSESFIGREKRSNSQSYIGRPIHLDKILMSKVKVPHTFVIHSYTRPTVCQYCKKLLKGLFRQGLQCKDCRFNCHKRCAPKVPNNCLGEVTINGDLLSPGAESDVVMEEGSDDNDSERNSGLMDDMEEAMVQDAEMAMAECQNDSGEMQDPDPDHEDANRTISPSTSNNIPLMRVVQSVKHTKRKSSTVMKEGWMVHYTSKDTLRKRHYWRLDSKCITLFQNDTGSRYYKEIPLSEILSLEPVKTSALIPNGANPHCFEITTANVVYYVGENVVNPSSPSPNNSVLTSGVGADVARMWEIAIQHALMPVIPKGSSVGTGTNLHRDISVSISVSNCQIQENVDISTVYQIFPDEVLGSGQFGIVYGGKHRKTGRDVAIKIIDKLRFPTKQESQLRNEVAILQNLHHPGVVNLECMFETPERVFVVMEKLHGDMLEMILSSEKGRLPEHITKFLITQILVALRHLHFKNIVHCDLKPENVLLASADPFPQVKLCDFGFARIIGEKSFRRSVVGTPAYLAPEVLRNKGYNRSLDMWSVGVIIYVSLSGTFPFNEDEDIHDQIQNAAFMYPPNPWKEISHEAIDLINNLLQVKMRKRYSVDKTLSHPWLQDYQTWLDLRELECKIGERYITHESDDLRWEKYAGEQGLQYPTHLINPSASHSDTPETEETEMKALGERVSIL

[7] = biological target: EPHA5 (Homo sapiens, UniProt P54756); experiment: biochemical; settings: read-out: % enzyme activity, 1 μM; Run 1, Run 2
Chain of EPHA5 (P54756 25-1037): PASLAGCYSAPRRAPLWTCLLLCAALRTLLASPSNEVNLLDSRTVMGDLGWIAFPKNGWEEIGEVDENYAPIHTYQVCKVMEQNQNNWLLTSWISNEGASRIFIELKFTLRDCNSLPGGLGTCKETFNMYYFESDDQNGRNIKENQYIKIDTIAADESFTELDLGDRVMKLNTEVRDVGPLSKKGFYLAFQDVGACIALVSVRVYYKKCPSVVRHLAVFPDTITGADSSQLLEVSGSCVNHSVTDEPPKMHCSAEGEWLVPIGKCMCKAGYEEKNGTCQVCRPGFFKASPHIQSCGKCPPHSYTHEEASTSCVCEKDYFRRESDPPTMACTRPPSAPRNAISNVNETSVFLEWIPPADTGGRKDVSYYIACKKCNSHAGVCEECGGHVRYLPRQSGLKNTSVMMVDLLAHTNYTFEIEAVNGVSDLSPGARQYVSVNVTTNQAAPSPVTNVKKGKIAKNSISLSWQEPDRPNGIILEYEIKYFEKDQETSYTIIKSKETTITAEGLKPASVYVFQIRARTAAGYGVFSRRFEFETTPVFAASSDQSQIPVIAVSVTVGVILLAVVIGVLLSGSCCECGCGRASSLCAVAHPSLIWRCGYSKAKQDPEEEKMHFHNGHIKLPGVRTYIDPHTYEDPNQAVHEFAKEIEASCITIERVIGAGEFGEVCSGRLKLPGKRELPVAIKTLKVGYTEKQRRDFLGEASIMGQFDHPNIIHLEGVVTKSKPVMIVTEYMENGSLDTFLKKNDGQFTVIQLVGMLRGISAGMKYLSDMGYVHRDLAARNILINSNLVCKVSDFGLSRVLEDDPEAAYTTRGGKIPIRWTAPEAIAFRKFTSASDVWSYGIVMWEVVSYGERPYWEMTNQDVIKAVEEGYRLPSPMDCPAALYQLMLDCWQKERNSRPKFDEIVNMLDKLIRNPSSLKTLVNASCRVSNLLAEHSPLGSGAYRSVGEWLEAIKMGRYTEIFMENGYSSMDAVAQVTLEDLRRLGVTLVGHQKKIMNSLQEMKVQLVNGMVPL

Chain of RSK3 (Q15349 whole entry): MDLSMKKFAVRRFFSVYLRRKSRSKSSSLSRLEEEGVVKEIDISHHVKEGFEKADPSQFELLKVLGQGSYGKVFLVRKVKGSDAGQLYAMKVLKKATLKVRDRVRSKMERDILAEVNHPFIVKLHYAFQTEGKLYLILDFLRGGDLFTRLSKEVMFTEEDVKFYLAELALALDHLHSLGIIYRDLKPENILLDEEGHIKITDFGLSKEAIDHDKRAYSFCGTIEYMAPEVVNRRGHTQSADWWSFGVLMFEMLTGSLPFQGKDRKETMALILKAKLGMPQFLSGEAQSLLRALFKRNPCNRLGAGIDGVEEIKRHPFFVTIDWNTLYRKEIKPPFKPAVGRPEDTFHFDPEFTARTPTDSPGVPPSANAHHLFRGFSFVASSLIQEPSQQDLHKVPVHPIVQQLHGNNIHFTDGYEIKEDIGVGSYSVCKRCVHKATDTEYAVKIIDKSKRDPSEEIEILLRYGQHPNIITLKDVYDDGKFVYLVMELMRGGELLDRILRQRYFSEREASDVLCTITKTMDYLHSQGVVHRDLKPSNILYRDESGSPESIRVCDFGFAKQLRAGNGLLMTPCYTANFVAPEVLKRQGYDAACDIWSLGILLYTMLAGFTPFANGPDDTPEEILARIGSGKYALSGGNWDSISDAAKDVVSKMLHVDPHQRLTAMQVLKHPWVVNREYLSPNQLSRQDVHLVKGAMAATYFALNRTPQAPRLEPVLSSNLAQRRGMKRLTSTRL

| SMILES | % enzyme activity [1] | % enzyme activity [2] | % enzyme activity [3] | % enzyme activity [4] | % enzyme activity at 1 μM [5] | % enzyme activity [6] | remaining activity at 1 µM [7] |
| --- | --- | --- | --- | --- | --- | --- | --- |
| COc1cc(-c2cncc(-c3ccc(N4CCN(C)CC4)cc3)c2C)cc(F)c1C(N)=O [Compound 26a, 2-Fluoro-6-methoxy-4-(4-methyl-5-(4-(4-methylpiperazin-1-yl)phenyl)pyridin-3-yl)benzamide] | 94.54% | 87.93% | 103.00% | 80.71% | 18.2% and 17% | 88.26% | 92.2% |
| COc1cc(-c2cncc(-c3ccc(N4C[C@@H](C)N(C)[C@@H](C)C4)cc3)c2C)cc(F)c1C(N)=O [Compound 26c, 2-Fluoro-6-methoxy-4-(4-methyl-5-(4-((3R,5S)-3,4,5-trimethylpiperazin-1-yl)phenyl)pyridin-3-yl)benzamide] | 97.01% | 99.74% | 99.34% | 79.33% | 30.2% and 30.1% | 95.09% | 92.7% |
